According to patent US20070128217A1 (priority 2003, published 2007):

Experiments:
[1] = system: antibodies in sera from SARS patients (sera 1a, 1b, 2, 6, 37, 62, London, SARS-yellow, SARS-green); type: binding, human; parameters: Binding of serum 6 to linear peptides of protein X1 of SARS-CoV Urbani / Binding of serum 37 to linear peptides of protein X1 of SARS-CoV Urbani / Binding of serum 6 to looped/cyclic peptide (PEPSCAN-ELISA) / Binding of serum 37 to looped/cyclic peptide (PEPSCAN-ELISA) / Binding of serum 37 to looped/cyclic peptides of protein X1 of SARS-CoV Urbani / Binding of serum 6 to linear peptides of protein X2 / Binding of serum 37 to linear peptides of protein X2 / Binding of serum 37 to looped/cyclic peptides of protein X2 of SARS-CoV Urbani / Binding of serum 6 to linear peptides of protein M of SARS-CoV Urbani / Binding of serum 37 to linear peptides of protein M of SARS-CoV Urbani / Binding of serum 6 to looped/cyclic peptides of protein M of SARS-CoV Urbani / Binding of serum 37 to looped/cyclic peptides of protein M of SARS-CoV Urbani / Binding of serum 6 to linear peptides of protein X3 of SARS-CoV Urbani / Binding of serum 37 to linear peptides of protein X3 of SARS-CoV Urbani / Binding of serum 37 to looped/cyclic peptides of protein X3 of SARS-CoV Urbani / Binding of serum 6 to linear peptides of protein X4 of SARS-CoV Urbani / Binding of serum 37 to linear peptides of protein X4 of SARS-CoV Urbani / Binding of serum 37 to looped/cyclic peptides of protein X4 of SARS-CoV Urbani / Binding of serum 6 to linear peptides of protein X5 of SARS-CoV Urbani / Binding of serum 37 to linear peptides of protein X5 of SARS-CoV Urbani / Binding of serum 37 to looped/cyclic peptides of protein X5 of SARS-CoV Urbani / Binding of serum 6 to linear peptides of protein N of SARS-CoV Urbani / Binding of serum 37 to linear peptides of protein N of SARS-CoV Urbani / Binding of serum 6 to linear peptide (PEPSCAN-ELISA) / Binding of serum 1a to looped/cyclic peptides of protein N of SARS-CoV Urbani / Binding of serum 1b to looped/cyclic peptides of protein N of SARS-CoV Urbani / Binding of serum 2 to looped/cyclic peptides of protein N of SARS-CoV Urbani / Binding of serum 6 to looped/cyclic peptides of protein N of SARS-CoV Urbani / Binding of serum 37 to looped/cyclic peptides of protein N of SARS-CoV Urbani / Binding of serum 62 to looped/cyclic peptides of protein N of SARS-CoV Urbani / Binding of serum London to looped/cyclic peptides of protein N of SARS-CoV Urbani / Binding of serum SARS-green to looped/cyclic peptides of protein N of SARS-CoV Urbani: unit not given here
[2] = system: control sera (pooled serum of ten healthy LUMC hospital workers; commercial negative donor pooled serum from the Dutch bloodbank); type: binding, human; parameters: Binding of Control serum LUMC to linear peptides / Binding of Control serum Blood-bank to linear peptides / Binding of Control serum LUMC to looped peptides / Binding of Control Serum Blood-Bank to Looped peptides / Binding of Control serum LUMC to linear peptides of the protein M of SARS-CoV Urbani / Binding of Control serum Blood-bank to linear peptides of the protein M of SARS-CoV Urbani / Binding of Control serum LUMC to looped peptides of the protein M of SARS-CoV Urbani / Binding of Control Serum Blood-Bank to Looped peptides of the protein M of SARS-CoV Urbani: unit not given here
[3] = system: rabbit serum obtained by immunizing a rabbit with the SARS-CoV strain Frankfurt 1; type: binding; parameters: Binding of a rabbit serum to linear peptides / Binding of a rabbit serum to looped peptides / Rabbit serum linear peptides / Rabbit serum looped peptides / Binding of a rabbit serum to linear peptides of protein N of SARS-CoV Urbani (Rabbit serum linear peptides) / Binding of a rabbit serum to looped/cyclic peptides of protein N of SARS-CoV Urbani (Rabbit serum looped peptides): unit not given here
[4] = system: recombinant human anti-SARS-CoV antibody 03-018; type: binding; parameters: Binding of antibody 03-018 to linear peptides of the N protein of SARS-CoV Urbani / Binding of antibody 03-018 to looped/cyclic peptides of the N protein of SARS-CoV Urbani: unit not given here

Row | Sequence | Binding of serum 1a to linear peptides of protein N of SARS-CoV Urbani [1] | Binding of serum 1a to looped/cyclic peptides of protein N of SARS-CoV Urbani [1] | Binding of serum 1b to linear peptides of protein N of SARS-CoV Urbani [1] | Binding of serum 1b to looped/cyclic peptides of protein N of SARS-CoV Urbani [1] | Binding of serum 2 to linear peptides of protein N of SARS-CoV Urbani [1] | Binding of serum 2 to looped/cyclic peptides of protein N of SARS-CoV Urbani [1] | Binding of serum 6 to linear peptides of protein N of SARS-CoV Urbani [1] | Binding of serum 6 to looped/cyclic peptides of protein N of SARS-CoV Urbani [1] | Binding of serum 37 to linear peptides of protein N of SARS-CoV Urbani [1] | Binding of serum 37 to looped/cyclic peptides of protein N of SARS-CoV Urbani [1] | Binding of serum 62 to linear peptides of protein N of SARS-CoV Urbani [1] | Binding of serum 62 to looped/cyclic peptides of protein N of SARS-CoV Urbani [1] | Binding of serum London to linear peptides of protein N of SARS-CoV Urbani [1] | Binding of serum London to looped/cyclic peptides of protein N of SARS-CoV Urbani [1] | Binding of serum SARS-green to looped/cyclic peptides of protein N of SARS-CoV Urbani [1] | Binding of serum SARS-yellow to looped/cyclic peptides of protein N of SARS-CoV Urbani [1] | Binding of a rabbit serum to linear peptides of protein N of SARS-CoV Urbani (Rabbit serum linear peptides) [3] | Binding of a rabbit serum to looped/cyclic peptides of protein N of SARS-CoV Urbani (Rabbit serum looped peptides) [3] | Binding of antibody 03-018 to linear peptides of the N protein of SARS-CoV Urbani [4] | Binding of antibody 03-018 to looped/cyclic peptides of the N protein of SARS-CoV Urbani [4] | also measured
1 | ADMDDFSRQLQNSMS | 0.3 | 0.3 | 0.2 | 0.2 | 0.2 | 0.2 | 1.5 | 0.0 | 0.7 | 0.4 | 0.6 | 0.3 | 0.8 | 0.2 | 0.1 | 0.2 | 0.2 | 0.4 | 0.1 | 0.1 | Binding of serum SARS-green to linear peptides of protein N of SARS-CoV Urbani [1]: 0.3; Binding of serum SARS-yellow to linear peptides of protein N of SARS-CoV Urbani [1]: 0.7; Control Serum Blood-Bank Looped peptides [2]: 0.4; Control serum Blood-bank linear peptides [2]: 0.8; Control serum LUMC linear peptides [2]: 0.7; Control serum LUMC looped peptides [2]: 0.2
2 | AFGRRGPEQTQGNFG | – | 0.3 | – | 0.1 | – | 0.3 | – | 0.1 | – | 0.3 | – | 0.3 | – | 0.3 | 0.1 | 0.1 | 0.1 | 0.0 | 0.1 | 0.2 | Binding of serum 1a to linear peptide (PEPSCAN-ELISA) [1]: 0.2; Binding of serum 1b to linear peptide (PEPSCAN-ELISA) [1]: 0.1; Binding of serum 2 to linear peptide (PEPSCAN-ELISA) [1]: 0.2; Binding of serum 6 to linear peptide (PEPSCAN-ELISA) [1]: 0.3; Binding of serum 37 to linear peptide (PEPSCAN-ELISA) [1]: 0.5; Binding of serum 62 to linear peptide (PEPSCAN-ELISA) [1]: 0.7; Binding of serum London to linear peptide (PEPSCAN-ELISA) [1]: 0.8; Binding of serum SARS-green to linear peptide (PEPSCAN-ELISA) [1]: 0.4; Binding of serum SARS-yellow to linear peptide (PEPSCAN-ELISA) [1]: 0.6; Binding of Control Serum Blood-Bank to Looped peptides [2]: 0.4; Binding of Control serum Blood-bank to linear peptides [2]: 0.6; Binding of Control serum LUMC to linear peptides [2]: 0.5; Binding of Control serum LUMC to looped peptides [2]: 0.3
3 | AIKLDDKDPQFKDNV | 0.2 | 0.3 | 0.1 | 0.2 | 0.2 | 0.3 | 0.2 | 0.2 | 0.8 | 0.5 | 0.9 | 0.4 | 0.6 | 0.4 | 0.4 | 0.2 | 0.1 | 0.3 | 0.1 | 0.2 | Binding of serum SARS-green to linear peptides of protein N of SARS-CoV Urbani [1]: 0.7; Binding of serum SARS-yellow to linear peptides of protein N of SARS-CoV Urbani [1]: 0.6; Control Serum Blood-Bank Looped peptides [2]: 0.5; Control serum Blood-bank linear peptides [2]: 0.7; Control serum LUMC linear peptides [2]: 0.8; Control serum LUMC looped peptides [2]: 0.5
